The values that follow are results of earlier work, collected in patent US6153225A (Elan Pharma International Limited, priority 1998, dated 2000).

Each structure is given as a SMILES string. Structures can show the parent of a compound that is named as a salt.

`COc1ccc2cc([C@H](C)C(=O)O)ccc2c1` [naproxen sodium salt]: under “naproxen sodium salt”, the “remission of acute and very high intensity pain” value is “rapid and sustained remission”. On to `COc1ccc2cc([C@H](C)C(=O)O)ccc2c1` [Naproxen, d-2(6-methoxy-2-naphthyl)propionic acid], for which, where the note is “menstrual cramps, toothaches, minor arthritis, injuries with inflammation”, the “pain relief compared with aspirin” value is “more potent pain reliever than aspirin”.
